Where two headings read alike, the source gives them in different places.
Experiments:
[1] = target: T1, HSV-1 ribonucleotide reductase (Human herpesvirus 1, UniProt P08543); assay: Inhibition of Herpes Simplex Virus (HSV-1) ribonucleotide reductase; assay type: biochemical; details: assay of example 10
T1 construct: HSV-1 ribonucleotide reductase (partially purified) was obtained from quiescent BHK-21/C13 cells infected with strain F HSV-1 virus; made in house; host or cells: quiescent BHK-21/C13 cells infected with HSV-1 strain F (virus-encoded enzyme, partially purified)
How it was run: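 Partially purified enzyme from quiescent BHK-21/C13 cells infected with HSV-1 strain F at 10 PFU/cell, used at constant units per assay. IC50 taken as concentration giving 50% of maximal inhibition versus no-compound control; mean of four assays.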

HSV-2 = assay: Inhibition of Herpes Simplex Virus (HSV-2) replication in cell culture; assay type: cell-based
How it was run: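 Serum-starved BHK-21/C13 cells infected with HSV-2 strain HG-52 (MOI 0.02 PFU/cell), then exposed to compound in BBMT medium for 29 h at 37°. Progeny virus titrated on fresh BHK-21/C13 cells by neutral red viability read at 540; EC50 as concentration halving virus replication.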

[2] = Table IV, cell culture assay of example 11, read-out: EC50

T1 sequence (P08543 whole entry): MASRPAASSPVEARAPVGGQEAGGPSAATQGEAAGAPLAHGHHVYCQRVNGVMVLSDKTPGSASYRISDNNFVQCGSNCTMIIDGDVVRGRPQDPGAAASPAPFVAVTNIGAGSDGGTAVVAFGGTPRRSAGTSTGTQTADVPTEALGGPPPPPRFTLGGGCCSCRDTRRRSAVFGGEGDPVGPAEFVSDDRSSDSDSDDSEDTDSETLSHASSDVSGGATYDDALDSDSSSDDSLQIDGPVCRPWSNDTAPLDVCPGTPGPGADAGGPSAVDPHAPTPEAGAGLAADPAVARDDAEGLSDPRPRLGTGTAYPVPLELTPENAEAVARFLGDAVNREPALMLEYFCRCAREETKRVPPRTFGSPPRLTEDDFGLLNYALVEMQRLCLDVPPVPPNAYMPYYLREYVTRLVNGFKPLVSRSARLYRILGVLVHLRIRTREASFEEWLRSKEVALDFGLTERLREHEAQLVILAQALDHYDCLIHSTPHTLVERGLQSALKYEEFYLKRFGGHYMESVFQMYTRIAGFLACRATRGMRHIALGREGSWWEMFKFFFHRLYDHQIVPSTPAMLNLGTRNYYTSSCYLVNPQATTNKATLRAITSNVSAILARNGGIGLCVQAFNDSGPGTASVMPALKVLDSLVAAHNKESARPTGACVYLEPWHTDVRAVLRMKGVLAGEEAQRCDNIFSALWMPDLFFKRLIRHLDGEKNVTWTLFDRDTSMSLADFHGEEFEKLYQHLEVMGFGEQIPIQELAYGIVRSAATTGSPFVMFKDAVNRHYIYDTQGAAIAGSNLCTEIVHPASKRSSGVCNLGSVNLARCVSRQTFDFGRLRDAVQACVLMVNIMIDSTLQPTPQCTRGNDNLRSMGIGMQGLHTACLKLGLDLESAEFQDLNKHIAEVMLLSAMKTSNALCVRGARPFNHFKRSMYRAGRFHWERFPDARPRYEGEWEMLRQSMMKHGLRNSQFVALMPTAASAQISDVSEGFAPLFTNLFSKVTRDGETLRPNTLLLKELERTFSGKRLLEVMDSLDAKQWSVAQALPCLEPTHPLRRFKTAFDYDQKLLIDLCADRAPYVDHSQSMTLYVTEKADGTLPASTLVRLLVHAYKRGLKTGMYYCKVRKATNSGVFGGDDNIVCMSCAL

Compound | IC50 ([1]; Table V) | EC50 (HSV-2; Human alphaherpesvirus 2) | EC50 (HSV-2; Human alphaherpesvirus 2, Table V, cell culture assay of example 11) | IC50 ([1]; Table IV) | EC50 (HSV-2; [2])
CCCC(CCC)NC(=O)NC(C(=O)CC(CC(=O)C1CCCCC1)C(=O)NC(C(=O)NCC(C)(C)C)C1(C(=O)O)CCCC1)C(C)(C)C [Pr2CHNHC(O)-Tbg-CH2-(R)-CH{CH2-C(O)-(cyclohexyl)}C(O)-Asp(cyPn)-NHCH2CMe3] | 0.37 µM | 61 µM | – | – | –
CCCC(CCC)NC(=O)NC(C(=O)CC(CC(=O)C(C)(C)C)C(=O)NC(C(=O)NC(C)C(C)(C)C)C1(C(=O)O)CCCC1)C(C)C [Pr2CHNHC(O)-Val-CH2-(R)-CH(CH2-C(O)CMe3)C(O)-Asp(cyPn)-NH-(R)-CH(Me)CMe3] | 0.22 µM | – | 37 µM | – | –
EtPr2CHNHC(O)-Tbg-CH2-(R)-CH(CH2C(O)CMe3)C(O)-Asp(cyPn)-NHCH2CHEt2 [EtPr2CHNHC(O) / NHCH2CHEt2] | – | – | – | 0.41 µM | 42 µM
Me(CH2=CH-CH2)2CNHC(O)-Tbg-CH2-(R)-CH(CH2C(O)CMe3)C(O)-Asp(cyPn)-NHCH2CMe3 [Me(CH2=CHCH2)2-CNHC(O) / NHCH2CMe3] | – | – | – | 0.27 µM | 30 µM

Reference: patent publication EP0560267B1, “Isosteric antiherpes peptide derivatives” (BOEHRINGER INGELHEIM (CANADA) LTD., priority 1992, dated 1993)
